Data as given in patent US10336702B2, “Pharmaceutically active compounds” (BERGENBIO ASA, priority 2015, dated 2019).

Key:
p-Akt2 in WM115 cells = target: T1, p-Akt2 in WM115 cells (Homo sapiens, UniProt P31751); test: Phospho-Akt cellular SureFire assay, p-Akt2 in WM115 cells; type: cell-based; conditions: insulin stimulated, read-out: Biological Assay 2 IC50 (nM) Akt2 WM115
T1 construct: SureFire assays to detect cellular p-Akt1, p-Akt2 and p-Akt3 levels in WM115 cells (Akt2/3) and LNCaP cells (Akt1); endogenous in cells; host or cells: WM115 (ECACC 91061232), insulin-stimulated
T1 sequence (P31751 whole entry): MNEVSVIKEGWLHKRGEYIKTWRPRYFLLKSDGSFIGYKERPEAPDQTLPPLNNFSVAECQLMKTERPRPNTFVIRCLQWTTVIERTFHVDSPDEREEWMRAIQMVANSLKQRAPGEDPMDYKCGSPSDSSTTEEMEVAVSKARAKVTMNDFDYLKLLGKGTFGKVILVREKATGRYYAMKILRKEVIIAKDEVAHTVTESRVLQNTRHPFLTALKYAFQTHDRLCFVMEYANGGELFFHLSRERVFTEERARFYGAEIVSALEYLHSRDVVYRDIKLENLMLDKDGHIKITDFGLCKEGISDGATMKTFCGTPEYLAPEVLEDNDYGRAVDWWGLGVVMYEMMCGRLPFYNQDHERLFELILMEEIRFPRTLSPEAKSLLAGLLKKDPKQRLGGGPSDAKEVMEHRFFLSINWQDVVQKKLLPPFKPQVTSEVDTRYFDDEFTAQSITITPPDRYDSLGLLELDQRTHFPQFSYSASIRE
Method in brief: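 Readout is a bead-proximity SureFire assay pairing a pThr308 Akt antibody with a total Akt2 antibody, lysate and beads incubated 2 h plus 2 h at room temperature in the dark. Before lysis, serum-starved WM115 cells received 100 nM insulin (10 min), then test compound (15 min, 0.3% DMSO); IC50 by 4-parameter equation.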

Akt3 = target: T2, Akt3 (Homo sapiens, UniProt Q9Y243); test: Akt activation assay (PDK1-mediated activation, LANCE Ultra crosstide TR-FRET), Akt3; type: biochemical; conditions: read-out: Biological Assay 1 IC50 (nM) Akt3
T2 construct: unspecified tag, removed (detagged) (cleaved yes); purchased SignalChem and Proteros (Akt3); Merck Millipore (PDK1) 14-452 (PDK1); none given for Akt3
T2 sequence (Q9Y243 whole entry): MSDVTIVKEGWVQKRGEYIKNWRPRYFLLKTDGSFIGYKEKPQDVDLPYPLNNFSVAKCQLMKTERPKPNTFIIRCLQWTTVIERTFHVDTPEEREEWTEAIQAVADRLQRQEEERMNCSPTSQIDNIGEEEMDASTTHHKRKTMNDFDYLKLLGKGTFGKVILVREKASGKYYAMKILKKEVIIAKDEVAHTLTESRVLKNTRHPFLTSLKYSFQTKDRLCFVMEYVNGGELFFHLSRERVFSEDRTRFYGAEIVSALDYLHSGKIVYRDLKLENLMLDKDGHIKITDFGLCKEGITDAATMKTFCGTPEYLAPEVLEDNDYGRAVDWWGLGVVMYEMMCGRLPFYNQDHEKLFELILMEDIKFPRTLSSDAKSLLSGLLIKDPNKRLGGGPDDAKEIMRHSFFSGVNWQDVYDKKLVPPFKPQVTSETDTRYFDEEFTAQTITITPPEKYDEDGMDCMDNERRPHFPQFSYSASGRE
Method in brief: (§1)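 TR-FRET read-out (665/615 nm ratio) after Eu-anti-phospho-crosstide antibody, 1 h. Reaction: compound preincubated with Akt isoform, then 5 nM PDK1, lipid vesicles with 0.55 μM PtdIns(3,4,5)P3, 100 μM ATP, 100 nM crosstide, 30 min, EDTA stop. IC50 from 4-parameter equation.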

Akt1 = target: T3, Akt1 (Homo sapiens, UniProt P31749); test: Akt activation assay (PDK1-mediated activation, LANCE Ultra crosstide TR-FRET), Akt1; type: biochemical; conditions: read-out: Biological Assay 1 IC50 (nM) Akt1
T3 construct: unspecified tag, removed (detagged) (cleaved yes); purchased SignalChem and Proteros (Akt1); Merck Millipore (PDK1) 14-452 (PDK1); none given for Akt1
T3 sequence (P31749 whole entry): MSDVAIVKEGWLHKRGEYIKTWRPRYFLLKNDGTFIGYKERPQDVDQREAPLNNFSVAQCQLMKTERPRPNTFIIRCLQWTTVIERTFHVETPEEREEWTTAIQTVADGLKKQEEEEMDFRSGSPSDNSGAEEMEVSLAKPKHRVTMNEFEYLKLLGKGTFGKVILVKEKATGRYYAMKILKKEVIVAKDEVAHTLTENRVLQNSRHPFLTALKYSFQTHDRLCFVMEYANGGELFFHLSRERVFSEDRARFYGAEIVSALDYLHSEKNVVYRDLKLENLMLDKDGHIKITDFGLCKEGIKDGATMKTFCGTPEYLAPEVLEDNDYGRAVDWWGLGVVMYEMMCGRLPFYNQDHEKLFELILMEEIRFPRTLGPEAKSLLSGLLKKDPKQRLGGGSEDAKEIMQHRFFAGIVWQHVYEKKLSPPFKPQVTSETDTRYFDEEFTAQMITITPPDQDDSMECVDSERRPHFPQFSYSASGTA
Method in brief: as §1

p-Akt3 in WM115 cells = target: T4, p-Akt3 in WM115 cells (Homo sapiens, UniProt Q9Y243); test: Phospho-Akt cellular SureFire assay, p-Akt3 in WM115 cells; type: cell-based; conditions: insulin stimulated, read-out: Biological Assay 2 IC50 (nM) Akt3 WM115
T4 construct: SureFire assays to detect cellular p-Akt1, p-Akt2 and p-Akt3 levels in WM115 cells (Akt2/3) and LNCaP cells (Akt1); endogenous in cells; host or cells: WM115 (ECACC 91061232), insulin-stimulated
T4 sequence (Q9Y243 whole entry): as the sequence (Q9Y243 whole entry) above
Method in brief: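 pThr308-Akt3 in lysates was quantified by bead-proximity SureFire detection, pairing a phospho-specific antibody with a total Akt3 antibody. Before lysis, WM115 cells in 0.1% FBS medium were treated for 15 min at 37 °C with compound (final DMSO 0.3%), following a 10 min stimulation with 100 nM insulin. IC50 was obtained by 4-parameter fitting.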

p-Akt1 in LNCaP cells = target: T5, p-Akt1 in LNCaP cells (Homo sapiens, UniProt P31749); test: Phospho-Akt cellular SureFire assay, p-Akt1 in LNCaP cells; type: cell-based; conditions: read-out: Biological Assay 2 IC50 (nM) Akt1 LNCaP
T5 construct: SureFire assays to detect cellular p-Akt1, p-Akt2 and p-Akt3 levels in WM115 cells (Akt2/3) and LNCaP cells (Akt1); endogenous in cells; host or cells: LNCaP (ECACC 89110211)
T5 sequence (P31749 whole entry): as the sequence (P31749 whole entry) above
Method in brief: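 Phospho-Thr308 Akt1 detected by AlphaScreen SureFire proximity beads in LNCaP lysates after 15 min compound treatment at 37 °C in 0.1% FBS medium, unstimulated, 0.3% DMSO. Cells plated at 5×10^4/well overnight; IC50 from a 4-parameter equation.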

Akt2 = target: T6, Akt2 (Homo sapiens, UniProt P31751); test: Akt activation assay (PDK1-mediated activation, LANCE Ultra crosstide TR-FRET), Akt2; type: biochemical; conditions: read-out: Biological Assay 1 IC50 (nM) Akt2
T6 construct: unspecified tag, removed (detagged) (cleaved yes); purchased SignalChem and Proteros (Akt2); Merck Millipore (PDK1) 14-452 (PDK1); none given for Akt2
T6 sequence (P31751 whole entry): as the sequence (P31751 whole entry) above
Method in brief: as §1

| Structure (SMILES) | IC50 (p-Akt2 in WM115 cells) | IC50 (Akt3) | IC50 (Akt1) | IC50 (p-Akt3 in WM115 cells) | IC50 (p-Akt1 in LNCaP cells) | IC50 (Akt2) |
| --- | --- | --- | --- | --- | --- | --- |
| C[C@]1(O)C[C@@](N)(c2ccc(-c3cnc(NC(=O)C[C@H]4CC[C@H](N5CCCC5=O)CC4)cc3-c3ccccc3)cc2)C1 [Example A82, N-(5-(4-(trans-1-amino-3-hydroxy-3-methylcyclobutyl)phenyl)-4-phenylpyridin-2-yl)-2-(trans-4-(2-oxopyrrolidin-1-yl)cyclohexyl)acetamide] | 460 nM | 7 nM | 3100 nM | 14 nM | 1800 nM | 91 nM |
| NC1(c2ccc(-c3cnc(NC(=O)C[C@H]4CC[C@H](N5CCCC5=O)CC4)cc3-c3ccccc3)cc2)CC1 [Example A83, N-(5-(4-(1-aminocyclopropyl)phenyl)-4-phenylpyridin-2-yl)-2-(trans-4-(2-oxopyrrolidin-1-yl)cyclohexyl)acetamide] | 3400 nM | 33 nM | > 30000 nM | 220 nM | > 20000 nM | 500 nM |
| CCC(=O)N(C)[C@H]1CC[C@H](CC(=O)Nc2cc(-c3ccccc3)c(-c3ccc(C(C)(C)N)cc3)nn2)CC1 [Example A84, N-(trans-4-(2-((6-(4-(2-aminopropan-2-yl)phenyl)-5-phenylpyridazin-3-yl)amino)-2-oxoethyl)cyclohexyl)-N-methylpropionamide] | 7100 nM | 51 nM | > 30000 nM | 150 nM | > 30000 nM | 4000 nM |
| CC(C)C(=O)N(C)[C@H]1CC[C@H](CC(=O)Nc2cc(-c3ccccc3)c(-c3ccc(C(C)(C)N)cc3)nn2)CC1 [Example A85, N-(trans-4-(2-((6-(4-(2-aminopropan-2-yl)phenyl)-5-phenylpyridazin-3-yl)amino)-2-oxoethyl)cyclohexyl)-N-methylisobutyramide] | 8800 nM | 74 nM | > 30000 nM | 270 nM | > 20000 nM | 3400 nM |
| CN(C(=O)C1CC1)[C@H]1CC[C@H](CC(=O)Nc2cc(-c3ccccc3)c(-c3ccc(C(C)(C)N)cc3)nn2)CC1 [Example A86, N-(trans-4-(2-((6-(4-(2-aminopropan-2-yl)phenyl)-5-phenylpyridazin-3-yl)amino)-2-oxoethyl)cyclohexyl)-N-methylcyclopropanecarboxamide] | 8300 nM | 45 nM | > 30000 nM | 170 nM | > 21000 nM | 3900 nM |
| CN(C(=O)C1CCC1)[C@H]1CC[C@H](CC(=O)Nc2cc(-c3ccccc3)c(-c3ccc(C(C)(C)N)cc3)nn2)CC1 [Example A87, N-(trans-4-(2-((6-(4-(2-aminopropan-2-yl)phenyl)-5-phenylpyridazin-3-yl)amino)-2-oxoethyl)cyclohexyl)-N-methylcyclobutanecarboxamide] | 12000 nM | 99 nM | > 30000 nM | 400 nM | > 23000 nM | 5500 nM |
| COC(=O)N(C)[C@H]1CC[C@H](CC(=O)Nc2cc(-c3ccccn3)c(-c3ccc(C4(N)CC4)cc3)cn2)CC1 [Example A88, Methyl ((1r,4r)-4-(2-((5′-(4-(1-aminocyclopropyl)phenyl)-[2,4′-bipyridin]-2′-yl)amino)-2-oxoethyl)cyclohexyl)(methyl)carbamate] | > 30000 nM | 1400 nM | > 30000 nM | 1600 nM | > 30000 nM | > 27000 nM |
| CCC(=O)N(C)[C@H]1CC[C@H](CC(=O)Nc2cnc(-c3ccc(C4(N)CC4)c(F)c3)c(-c3ccccc3)c2)CC1 [Example A89, N-(trans-4-(2-((6-(4-(1-aminocyclopropyl)-3-fluorophenyl)-5-phenylpyridin-3-yl)amino)-2-oxoethyl)cyclohexyl)-N-methylpropionamide] | 8300 nM | 80 nM | > 30000 nM | 130 nM | > 30000 nM | 4000 nM |
| CCC(=O)N(C)[C@H]1CC[C@H](CC(=O)Nc2cc(-c3ccccc3)c(-c3ccc(C4(N)CC4)cc3)nn2)CC1 [Example A91, N-(trans-4-(2-((6-(4-(1-aminocyclopropyl)phenyl)-5-phenylpyridazin-3-yl)amino)-2-oxoethyl)cyclohexyl)-N-methylpropionamide] | 2000 nM | 24 nM | > 30000 nM | 90 nM | > 30000 nM | 490 nM |
| CC(C)C(=O)N(C)[C@H]1CC[C@H](CC(=O)Nc2cc(-c3ccccc3)c(-c3ccc(C4(N)CC4)cc3)nn2)CC1 [Example A92, N-(trans-4-(2-((6-(4-(1-aminocyclopropyl)phenyl)-5-phenylpyridazin-3-yl)amino)-2-oxoethyl)cyclohexyl)-N-methylisobutyramide] | 2200 nM | 29 nM | > 13000 nM | 140 nM | > 30000 nM | 1200 nM |
| CN(C(=O)C1CCC1)[C@H]1CC[C@H](CC(=O)Nc2cc(-c3ccccc3)c(-c3ccc(C4(N)CC4)cc3)nn2)CC1 [Example A93, N-(trans-4-(2-((6-(4-(1-aminocyclopropyl)phenyl)-5-phenylpyridazin-3-yl)amino)-2-oxoethyl)cyclohexyl)-N-methylcyclobutanecarboxamide] | 2600 nM | 37 nM | > 19000 nM | 200 nM | > 30000 nM | 1400 nM |
| CCOC(=O)N(C)[C@H]1CC[C@H](CC(=O)Nc2cc(-c3ccccc3)c(-c3ccc(C4(N)CC4)cc3)nn2)CC1 [Example A94, Ethyl (trans-4-(2-((6-(4-(1-aminocyclopropyl)phenyl)-5-phenylpyridazin-3-yl)amino)-2-oxoethyl)cyclohexyl)(methyl)carbamate] | 6000 nM | 57 nM | > 23000 nM | 370 nM | > 30000 nM | 2200 nM |
| CCC(=O)N(C)[C@H]1CC[C@H](CC(=O)Nc2cnc(-c3ccc(C(C)(C)N)cc3)c(-c3ccccc3)c2)CC1 [Example A95, N-(trans-4-(2-((6-(4-(2-aminopropan-2-yl)phenyl)-5-phenylpyridin-3-yl)amino)-2-oxoethyl)cyclohexyl)-N-methylpropionamide] | 3100 nM | 54 nM | > 30000 nM | 110 nM | > 30000 nM | 3300 nM |
| CC(=O)N(C)[C@H]1CC[C@H](CC(=O)Nc2cc(-c3ccsc3)c(-c3ccc(C(C)(C)N)cc3)nn2)CC1 [Example A96, N-(6-(4-(2-aminopropan-2-yl)phenyl)-5-(thiophen-3-yl)pyridazin-3-yl)-2-(trans-4-(N-methylacetamido)cyclohexyl)acetamide] | 15000 nM | 92 nM | > 30000 nM | 180 nM | > 30000 nM | 10000 nM |
| C[C@]1(O)C[C@@](N)(c2ccc(-c3nnc(NC(=O)C[C@H]4CC[C@H](N5CCCCC5=O)CC4)cc3-c3ccccc3)cc2)C1 [Example A98, N-(6-(4-(trans-1-amino-3-hydroxy-3-methylcyclobutyl)phenyl)-5-phenylpyridazin-3-yl)-2-(trans-4-(2-oxopiperidin-1-yl)cyclohexyl)acetamide] | 320 nM | 4 nM | 2600 nM | 5 nM | 1900 nM | 53 nM |
| CCOC(=O)N(C)[C@H]1CC[C@H](CC(=O)Nc2cnc(-c3ccc(C(C)(C)N)cc3)c(-c3ccccc3)c2)CC1 [Example A99, Ethyl (trans-4-(2-((6-(4-(2-aminopropan-2-yl)phenyl)-5-phenylpyridin-3-yl)amino)-2-oxoethyl)cyclohexyl)(methyl)carbamate] | 7800 nM | 130 nM | > 27000 nM | 440 nM | > 30000 nM | 3000 nM |
